Results as given in BindingDB's records for doi:10.1021/jm0305523 (Merck Research Laboratories, 2004).
pIC50: −log10 of the molar value.

Molecular target: T1, Caspase-3 (Homo sapiens, UniProt P42574)
T1 sequence (P42574 whole entry): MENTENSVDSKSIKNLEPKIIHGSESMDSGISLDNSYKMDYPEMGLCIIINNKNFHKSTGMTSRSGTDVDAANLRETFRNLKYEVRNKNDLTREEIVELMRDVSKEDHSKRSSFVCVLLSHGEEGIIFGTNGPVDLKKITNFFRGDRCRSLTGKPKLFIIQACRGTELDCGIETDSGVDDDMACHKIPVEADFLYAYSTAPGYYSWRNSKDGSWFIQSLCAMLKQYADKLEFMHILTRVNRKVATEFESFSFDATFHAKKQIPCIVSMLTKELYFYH
Experiment: Caspase Inhibition Assay
Conditions: pH 7; 37 °C

## CC(=O)N[C@@H](CC(=O)O)C(=O)N[C@H]1CCc2cccc3c2N(C1=O)[C@H](C(=O)N[C@@H](CC(=O)O)C(=O)CSCc1ccccc1)C3 [(3S)-5-(benzylsulfanyl)-3-{[(2S,11S)-11-[(3S)-3-acetamido-3-formamidopropanoic acid]-12-oxo-1-azatricyclo[6.4.1.0^{4,13}]trideca-4(13),5,7-trien-2-yl]formamido}-4-oxopentanoic acid]
  pIC50: 8.52
